From PubChem BioAssay (NCI)
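Tested at 5 concentrations; 48 h exposure; 96-well plates; endpoints linearly interpolated, else capped at highest concentration. The concentration for full growth arrest is given as TGI.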

Key:
Assay in all cases: NCI-60 cell line screen, 48 h
[1] = tested on: 786-0 renal
[2] = tested on: BT-549 breast
[3] = tested on: CAKI-1 renal
[4] = tested on: COLO 205 colon
[5] = tested on: DU-145 prostate
[6] = tested on: HCC-2998 colon
[7] = tested on: HCT-15 colon
[8] = tested on: HOP-62 NSCLC
[9] = tested on: HS 578T breast
[10] = tested on: LOX IMVI melanoma
[11] = tested on: OVCAR-3 ovarian
[12] = tested on: RPMI-8226 leukemia
[13] = tested on: SF-539 CNS
[14] = tested on: SK-OV-3 ovarian
[15] = tested on: SNB-19 CNS
[16] = tested on: SR leukemia
[17] = tested on: T-47D breast
[18] = tested on: TK-10 renal
[19] = tested on: NCI-H522 lung
[20] = tested on: SK-MEL-2 melanoma

| Compound | TGI [1] [µM] | TGI [2] [µM] | TGI [3] [µM] | TGI [4] [µM] | TGI [5] [µM] | TGI [6] [µM] | TGI [7] [µM] | TGI [8] [µM] | TGI [9] [µM] | TGI [10] [µM] | TGI [11] [µM] | TGI [12] [µM] | TGI [13] [µM] | TGI [14] [µM] | TGI [15] [µM] | TGI [16] [µM] | TGI [17] [µM] | TGI [18] [µM] | TGI [19] [µM] | TGI [20] [µM] |
| --- | --- | --- | --- | --- | --- | --- | --- | --- | --- | --- | --- | --- | --- | --- | --- | --- | --- | --- | --- | --- |
| CCN(CC)C(=C(C(Cl)=C(Cl)Cl)[N+](=O)[O-])N(CC)CC | > 100 | > 100 | > 100 | > 100 | > 100 | > 100 | > 100 | > 100 | 68.5 | > 100 | > 100 | > 100 | > 100 | > 100 | > 100 | > 100 | > 100 | > 100 | – | – |
| COc1ccc2cc(Oc3ccc(Cl)cc3)c(=O)oc2c1 | > 100 | > 100 | > 100 | – | > 100 | – | > 100 | > 100 | > 100 | > 100 | > 100 | > 100 | > 100 | – | > 100 | > 100 | > 100 | > 100 | > 100 | – |
| Cc1cc([C@H](C#N)c2nc3ccccc3[nH]2)nc(Cl)n1 | > 100 | > 100 | > 100 | > 100 | > 100 | 42.8 | > 100 | – | > 100 | > 100 | – | > 100 | > 100 | > 100 | > 100 | > 100 | 89.5 | > 100 | – | > 100 |
| COC(=O)C1=C(O)C(C(=O)OC)[C@]2(O)[C@H](C(=O)OC)[C@H]1C[C@@H](c1ccc(F)cc1)[C@H]2C(=O)OC (stereo not given in full) | 32 | 65.9 | > 100 | 29.6 | 67.6 | 28.7 | 40.8 | 68.5 | 81.8 | 42.1 | 35.5 | 69.7 | 41 | 77.6 | > 100 | 47.5 | > 100 | 57.5 | – | 19 |
| Cc1ccc(-n2cnc3c(N)nc(N)nc32)cc1 | > 100 | > 100 | > 100 | > 100 | > 100 | > 100 | > 100 | > 100 | > 100 | > 100 | > 100 | > 100 | > 100 | > 100 | > 100 | – | > 100 | > 100 | > 100 | > 100 |
| CN1C2CCC1CC(CCOC(c1ccc(F)cc1)c1ccc(F)cc1)C2 (stereo not given) | 30.7 | 31.1 | 32.6 | 24.1 | 33.5 | – | 32.3 | 30.9 | 44.5 | 30.3 | 32.4 | 44.4 | 29.9 | 31.2 | 41.6 | 38.2 | 39.2 | 28.8 | 31.9 | 31.4 |
| CC(C)(C)O/C=C1/C(=O)OC2C[C@@H](O[Si](C)(C)C(C)(C)C)CC12 (stereo not given in full) | > 100 | > 100 | > 100 | > 100 | > 100 | > 100 | > 100 | > 100 | – | > 100 | > 100 | – | – | > 100 | > 100 | – | > 100 | > 100 | 87.4 | > 100 |
| Cc1cc(C)nc(NS(=O)(=O)c2ccc(Nc3c4ccccc4nc4c(C(=O)NNCCO)cccc34)cc2)n1 | > 100 | > 100 | > 100 | > 100 | > 100 | > 100 | > 100 | > 100 | > 100 | > 100 | > 100 | > 100 | – | > 100 | > 100 | > 100 | > 100 | > 100 | > 100 | > 100 |
| COc1nc(C)nc2sc3c(c12)CCCC3 | > 100 | > 100 | > 100 | > 100 | > 100 | > 100 | > 100 | > 100 | > 100 | > 100 | > 100 | > 100 | – | – | > 100 | > 100 | > 100 | > 100 | > 100 | > 100 |
| CC(=O)C(I(OS(=O)(=O)c1ccc(C)cc1)c1ccccc1)=P(c1ccccc1)(c1ccccc1)c1ccccc1 | > 100 | 46.3 | > 100 | 31.4 | 58.7 | 39 | > 100 | 59.6 | 68.8 | – | 56.1 | 61.1 | 39.1 | > 100 | > 100 | – | 85.3 | > 100 | 24.5 | 36 |
| CSc1nc(C)c2c(n1)SCC2 | > 10 | > 10 | > 10 | > 10 | > 10 | – | > 10 | > 10 | > 10 | > 10 | > 10 | > 10 | > 10 | > 10 | > 10 | > 10 | > 10 | > 10 | – | – |
| N#C/C(=C\c1cn(Cc2ccccc2)c2ccccc12)c1nn(-c2ccccc2)c(N)c1C#N | 21.3 | 58.3 | 47 | 56.2 | 32.2 | – | > 100 | – | > 100 | > 100 | 33.7 | > 100 | 7.22 | 40 | 28.8 | > 100 | 23.3 | 35.8 | 34.7 | 16.9 |
| Cc1oc2c(c1C)S(=O)(=O)C(C#N)C(c1ccccc1)N2 (stereo not given) | > 100 | > 100 | > 100 | > 100 | > 100 | > 100 | > 100 | > 100 | > 100 | > 100 | > 100 | – | > 100 | > 100 | > 100 | – | > 100 | > 100 | 40.2 | > 100 |
| CN(C)c1ccc(/C=N\NC(=O)c2ccccc2Nc2ccccc2C(=O)N/N=C/c2ccc(N(C)C)cc2)cc1 | > 100 | > 100 | > 100 | > 100 | > 100 | > 100 | > 100 | > 100 | > 100 | > 100 | > 100 | > 100 | 81.9 | > 100 | > 100 | > 100 | > 100 | > 100 | – | > 100 |
| COc1cc(OCc2nc3ccccc3n3cccc23)cc(OC)c1OC | > 74.3 | > 100 | > 100 | > 82.3 | > 100 | > 88.3 | > 100 | > 100 | > 100 | > 100 | > 60.9 | 14.6 | > 100 | > 100 | > 100 | – | > 100 | > 88.6 | > 65.9 | > 100 |
| CCOC(=O)NNC(=O)C1CSC(c2ccccc2)N1C(C)=O (stereo not given) | > 100 | > 100 | > 100 | > 100 | > 100 | > 100 | > 100 | > 100 | > 100 | > 100 | > 100 | > 100 | > 100 | > 100 | > 100 | – | > 100 | > 100 | > 100 | > 100 |
| CC1(C)CN=C(c2ccc3c(c2)Cc2cc(C4=NCC(C)(C)N4)ccc2-3)N1 | > 100 | > 100 | > 100 | > 100 | > 100 | 74.1 | > 100 | > 100 | > 100 | > 100 | > 100 | 65.8 | – | > 100 | > 100 | > 100 | > 100 | > 100 | 83.6 | 49.9 |
| O=C(c1cc(Cl)cc(Cl)c1)N(C(=O)N1CCN(c2ccccc2)CC1)c1ccccc1 | > 100 | > 100 | > 100 | 39.6 | > 100 | > 100 | > 100 | > 100 | > 100 | > 100 | > 100 | – | > 100 | > 100 | > 100 | – | > 100 | > 100 | > 100 | > 100 |
| N#CC(C#N)N=Cc1ccncc1 | > 100 | > 100 | > 100 | > 100 | > 100 | > 100 | > 100 | > 100 | – | > 100 | > 100 | > 100 | > 100 | > 100 | – | – | > 100 | > 100 | – | > 100 |
| CC(=O)O[C@@H]1CC[C@@]2(C)C(CC[C@H]3[C@@H]4CC[C@H]([C@H](C)CCc5nc6ccc(C)cc6[nH]5)[C@@]4(C)CC[C@@H]32)C1 (stereo not given in full) | > 100 | > 100 | > 100 | > 100 | > 100 | > 100 | > 100 | > 100 | > 100 | > 100 | > 100 | 84.3 | > 100 | > 100 | > 100 | – | 4.63 | > 100 | > 100 | > 100 |
| COC(=O)C(Cc1cn(C(C)=O)c2ccccc12)P(=O)(OC)OC (stereo not given) | – | > 100 | > 100 | > 100 | > 100 | > 100 | > 100 | – | – | – | > 100 | > 100 | > 100 | – | > 100 | > 100 | > 100 | > 100 | > 100 | – |
| CC(=O)Oc1cc2c(n(C)c1=O)-c1ccccc1C2 | > 100 | > 100 | 78 | > 100 | > 100 | > 100 | > 100 | > 100 | > 100 | > 100 | > 100 | > 100 | – | > 100 | > 100 | – | > 100 | > 100 | 30.7 | > 100 |
| COc1cccc(OC/C(N=Cc2cccnc2)=N/NC(=O)c2ccncc2)c1 | > 100 | > 100 | > 100 | > 100 | > 100 | > 100 | > 100 | > 100 | > 100 | > 100 | > 100 | > 100 | > 100 | > 100 | > 100 | – | > 100 | > 100 | > 100 | > 100 |
| COC(=O)Nc1nc2ccc(S(=O)(=O)NC(CC(C)C)C(=O)OC)cc2[nH]1 (stereo not given) | > 100 | > 100 | > 100 | 59.3 | – | – | > 100 | > 100 | 3.47 | > 100 | 2.7 | > 100 | 38.3 | > 100 | 45 | – | > 100 | 31.9 | 0.888 | > 100 |
| ClC1(Cl)C(c2ccccc2)C1c1ccccc1 (stereo not given) | > 100 | 77.4 | 75.9 | > 100 | > 100 | 30 | > 100 | > 100 | > 100 | 93 | 87.8 | 79.8 | – | 55.7 | > 100 | 55.4 | > 100 | > 100 | – | 40.2 |
| COc1ccc2c(c1)/C(=C\c1c(C)nc3n1CCS3)C(=O)N2 | > 100 | 86.3 | > 100 | 41.9 | > 100 | > 100 | > 100 | > 100 | – | > 100 | 76 | > 100 | 54.7 | 63.3 | > 100 | > 100 | > 100 | > 100 | – | > 100 |
